Test system: CAKI-1
Experiment: NCI-60 single-dose screen
Type: cell-based
Details: Homo sapiens, single dose 10 µM, '-' = no inhibition, read-out: % Growth Inhibition
Experimental: (§1) The National Cancer Institute’s Developmental Therapeutic Program (www.dtp.nci.nih.gov) has tested compounds 9–29 (except compounds 21 and 22) against 60 cancer cell lines from nine types (leukemia, lung, colon, CNS, melanoma, ovarian, renal, prostate, and breast cancer) at a single dose (10 μM) ([El-Sherief et al., 2018]). […] The most sensitive cells included leukemia (SR, K-562, and MOLT-4), lung (NCI-H522, […], and EKVX), breast (MCF-7 and T-47D), colon (HCT-15 and HT-29), and ovarian (NCI/ADR-RES).
(§2) The National Cancer Institute’s Developmental Therapeutic Program (www.dtp.nci.nih.gov) evaluated compounds 9–29 (excluding 21 and 22) against 60 cancer cell lines from nine categories (leukemia, lung, colon, CNS, melanoma, ovarian, renal, prostate, and breast cancer) at a single dose (10 μM) ([El-Sherief et al., 2018]). See Supplementary Material A1 for more details.

SMILES	inhibition at 10 µM [%]
CCSc1nc(-c2ccc(Cl)cc2)cc(-c2ccc(OC)cc2)n1 [Compound 10, 4-(4-Chlorophenyl)-2-(ethylthio)-6-(4-methoxyphenyl)pyrimidine]	13.3
CCCSc1nc(-c2ccc(Cl)cc2)cc(-c2ccc(OC)cc2)n1 [Compound 11, 4-(4-Chlorophenyl)-6-(4-methoxyphenyl)-2-(propylthio)pyrimidine]	7.98

Test system: DU-145
Experiment: NCI-60 single-dose screen
Type: cell-based
Details: Homo sapiens, single dose 10 µM, '-' = no inhibition, read-out: % Growth Inhibition
Experimental: as §1, §2

SMILES	inhibition at 10 µM [%]
CCSc1nc(-c2ccc(Cl)cc2)cc(-c2ccc(OC)cc2)n1 [Compound 10, 4-(4-Chlorophenyl)-2-(ethylthio)-6-(4-methoxyphenyl)pyrimidine]	< 0
CCCSc1nc(-c2ccc(Cl)cc2)cc(-c2ccc(OC)cc2)n1 [Compound 11, 4-(4-Chlorophenyl)-6-(4-methoxyphenyl)-2-(propylthio)pyrimidine]	0.44

Test system: HCT-116
Experiment: NCI-60 single-dose screen
Type: cell-based
Details: Homo sapiens, single dose 10 µM, '-' = no inhibition, read-out: % Growth Inhibition
Experimental: as §1, §2

SMILES	inhibition at 10 µM [%]
CCSc1nc(-c2ccc(Cl)cc2)cc(-c2ccc(OC)cc2)n1 [Compound 10, 4-(4-Chlorophenyl)-2-(ethylthio)-6-(4-methoxyphenyl)pyrimidine]	4.3
CCCSc1nc(-c2ccc(Cl)cc2)cc(-c2ccc(OC)cc2)n1 [Compound 11, 4-(4-Chlorophenyl)-6-(4-methoxyphenyl)-2-(propylthio)pyrimidine]	< 0

Test system: HOP-92
Experiment: NCI-60 single-dose screen
Type: cell-based
Details: Homo sapiens, single dose 10 µM, '-' = no inhibition, read-out: % Growth Inhibition
Experimental: as §1, §2

SMILES	inhibition at 10 µM [%]
CCSc1nc(-c2ccc(Cl)cc2)cc(-c2ccc(OC)cc2)n1 [Compound 10, 4-(4-Chlorophenyl)-2-(ethylthio)-6-(4-methoxyphenyl)pyrimidine]	< 0
CCCSc1nc(-c2ccc(Cl)cc2)cc(-c2ccc(OC)cc2)n1 [Compound 11, 4-(4-Chlorophenyl)-6-(4-methoxyphenyl)-2-(propylthio)pyrimidine]	< 0

Test system: HS 578T
Experiment: NCI-60 single-dose screen
Type: cell-based
Details: Homo sapiens, single dose 10 µM, '-' = no inhibition, read-out: % Growth Inhibition
Experimental: as §1, §2

SMILES	inhibition at 10 µM [%]
CCSc1nc(-c2ccc(Cl)cc2)cc(-c2ccc(OC)cc2)n1 [Compound 10, 4-(4-Chlorophenyl)-2-(ethylthio)-6-(4-methoxyphenyl)pyrimidine]	2.58
CCCSc1nc(-c2ccc(Cl)cc2)cc(-c2ccc(OC)cc2)n1 [Compound 11, 4-(4-Chlorophenyl)-6-(4-methoxyphenyl)-2-(propylthio)pyrimidine]	< 0

Test system: MDA-MB-435
Experiment: NCI-60 single-dose screen
Type: cell-based
Details: Homo sapiens, single dose 10 µM, '-' = no inhibition, read-out: % Growth Inhibition
Experimental: as §1, §2

SMILES	inhibition at 10 µM [%]
CCSc1nc(-c2ccc(Cl)cc2)cc(-c2ccc(OC)cc2)n1 [Compound 10, 4-(4-Chlorophenyl)-2-(ethylthio)-6-(4-methoxyphenyl)pyrimidine]	8.38
CCCSc1nc(-c2ccc(Cl)cc2)cc(-c2ccc(OC)cc2)n1 [Compound 11, 4-(4-Chlorophenyl)-6-(4-methoxyphenyl)-2-(propylthio)pyrimidine]	1.63

Test system: OVCAR-3
Experiment: NCI-60 single-dose screen
Type: cell-based
Details: Homo sapiens, single dose 10 µM, '-' = no inhibition, read-out: % Growth Inhibition
Experimental: as §1, §2

SMILES	inhibition at 10 µM [%]
CCSc1nc(-c2ccc(Cl)cc2)cc(-c2ccc(OC)cc2)n1 [Compound 10, 4-(4-Chlorophenyl)-2-(ethylthio)-6-(4-methoxyphenyl)pyrimidine]	< 0
CCCSc1nc(-c2ccc(Cl)cc2)cc(-c2ccc(OC)cc2)n1 [Compound 11, 4-(4-Chlorophenyl)-6-(4-methoxyphenyl)-2-(propylthio)pyrimidine]	< 0

Test system: SF-295
Experiment: NCI-60 single-dose screen
Type: cell-based
Details: Homo sapiens, single dose 10 µM, '-' = no inhibition, read-out: % Growth Inhibition
Experimental: as §1, §2

SMILES	inhibition at 10 µM [%]
CCSc1nc(-c2ccc(Cl)cc2)cc(-c2ccc(OC)cc2)n1 [Compound 10, 4-(4-Chlorophenyl)-2-(ethylthio)-6-(4-methoxyphenyl)pyrimidine]	2.91
CCCSc1nc(-c2ccc(Cl)cc2)cc(-c2ccc(OC)cc2)n1 [Compound 11, 4-(4-Chlorophenyl)-6-(4-methoxyphenyl)-2-(propylthio)pyrimidine]	6.79

Test system: SN12C
Experiment: NCI-60 single-dose screen
Type: cell-based
Details: Homo sapiens, single dose 10 µM, '-' = no inhibition, read-out: % Growth Inhibition
Experimental: as §1, §2

SMILES	inhibition at 10 µM [%]
CCSc1nc(-c2ccc(Cl)cc2)cc(-c2ccc(OC)cc2)n1 [Compound 10, 4-(4-Chlorophenyl)-2-(ethylthio)-6-(4-methoxyphenyl)pyrimidine]	0.46
CCCSc1nc(-c2ccc(Cl)cc2)cc(-c2ccc(OC)cc2)n1 [Compound 11, 4-(4-Chlorophenyl)-6-(4-methoxyphenyl)-2-(propylthio)pyrimidine]	6.25

Test system: SW-620
Experiment: NCI-60 single-dose screen
Type: cell-based
Details: Homo sapiens, single dose 10 µM, '-' = no inhibition, read-out: % Growth Inhibition
Experimental: as §1, §2

SMILES	inhibition at 10 µM [%]
CCSc1nc(-c2ccc(Cl)cc2)cc(-c2ccc(OC)cc2)n1 [Compound 10, 4-(4-Chlorophenyl)-2-(ethylthio)-6-(4-methoxyphenyl)pyrimidine]	< 0
CCCSc1nc(-c2ccc(Cl)cc2)cc(-c2ccc(OC)cc2)n1 [Compound 11, 4-(4-Chlorophenyl)-6-(4-methoxyphenyl)-2-(propylthio)pyrimidine]	0.11

Test system: not listed separately
Experiment: Cell viability assay (MTT) on normal cells
Type: cell-based
Details: human, MCF-10A normal mammary gland epithelial cells, 4 days incubation
Experimental: This experiment examines the impact of the newly developed compounds 9–29 on normal cell lines to assess their safety level. The vitality of the investigated compounds was assessed using the MCF-10 A cell line, a normal human mammary gland epithelial cell line. Following 4 days of incubation on MCF-10 A cells with each examined compound at a concentration of 50 μM, the vitality of the cells was assessed using the MTT test ([Mahmoud et al., 2022]; [Mekheimer et al., 2022]).
This experiment examines the impact of the newly developed compounds 9–29 on normal cell lines to assess their safety level. The viability of 9–29 was assessed using the MCF-10 A cell line, a normal human mammary gland epithelial cell line. Following 4 days of incubation on MCF-10 A cells with each examined compound at a concentration of 50 μM, the vitality of the cells was assessed using the MTT test ([Mahmoud et al., 2022]; [Mekheimer et al., 2022]). Refer to Supplementary Material A1 for more details. […]
4.2. Biological evaluation
4.2.1. Cytotoxic activity using MTT Assay and evaluation of IC50
MTT assay was carried out to study the effect of compounds on mammary epithelial cells (MCF-10A). The medium in which cells were propagated contained Dulbecco's modified Eagle's medium (DMEM)/ Ham's F-12 medium (1:1) supplemented with epidermal growth factor (20 ng/mL), hydrocortisone (500 ng/mL), insulin (10 μg/mL), 2 mM glutamine and 10% foetal calf serum.
After every 2-3 days, the cells were passaged using trypsin ethylenediamine tetra acetic acid (EDTA). The cells were seeded at a density of 10^4 cells mL-1 in flat-bottomed culture plates containing 96 wells each. After 24 h, medium was removed from the plates and the compounds in (in 0.1% DMSO) were added (in 200 μL medium to yield a final concentration of 0.1% v/v) to the wells of plates. A single compound was designated with four wells followed by incubation of plates for 96h at 37°C. After incubation, medium was removed completely from the plates followed by addition of MTT (0.4 mg/mL in medium) to each well and subsequent incubation of plates for 3h. MTT (along with the medium) was removed and DMSO (150μL) was added to each well of the culture plates, followed by vertexing and subsequent measurement of absorbance (at 540 nm) using microplate reader. The data are shown as percentage inhibition of proliferation in comparison with controls containing 0.1% DMSO. […]

SMILES	viability at 4 days, 50 µM [%]
CCSc1nc(-c2ccc(Cl)cc2)cc(-c2ccc(OC)cc2)n1 [Compound 10, 4-(4-Chlorophenyl)-2-(ethylthio)-6-(4-methoxyphenyl)pyrimidine]	90
CCCSc1nc(-c2ccc(Cl)cc2)cc(-c2ccc(OC)cc2)n1 [Compound 11, 4-(4-Chlorophenyl)-6-(4-methoxyphenyl)-2-(propylthio)pyrimidine]	89

Test system: A-549
Experiment: Antiproliferative assay (MTT)
Type: cell-based
Details: Homo sapiens, A549, A-549 (lung), read-out: Antiproliferative activity IC50 ± SEM, A-549
From the text: (§3) The MTT test was employed for this investigation ([Hisham et al., 2022]; [El-Sherief et al., 2019]; [Ramadan et al., 2020]). Table 2 presents the four cancer cell lines’ median inhibitory concentration (IC50) and GI50 (average IC50) values.
(§4) The MTT test was employed for this investigation ([Hisham et al., 2022]; [El-Sherief et al., 2019]; [Ramadan et al., 2020]). The IC50 values were derived from dose-response tests. The reported data are derived from at least two independent studies, each comprising three replicates per concentration. See Supplementary Material A1 for more details.
(§5) (in 0.1% DMSO) were added (in 200 μL medium to yield a final concentration of 0.1% v/v) to the wells of plates. A single compound was designated with four wells followed by incubation of plates for 96h at 37°C. After incubation, medium was removed completely from the plates followed by addition of MTT (0.4 mg/mL in medium) to each well and subsequent incubation of plates for 3h. MTT (along with the medium) was removed and DMSO (150μL) was added to each well of the culture plates, followed by vertexing and subsequent measurement of absorbance (at 540 nm) using microplate reader. The data are shown as percentage inhibition of proliferation in comparison with controls containing 0.1% DMSO.
(§6) 4.2.1.2. Assay for antiproliferative effect […]
(§7) (10%) and 1 µg/mL each of aprotinin, leupeptin and pepstatin for 120 min. The purification was performed either at 4 °C or on ice. To record autophosphorylation level, EGFR kinase assay was carried out on the basis of DELFIA/Time-Resolved Fluorometry. The compounds were first
(§8) (1 picture or pasted object on this page, not shown here)

SMILES	IC50 [nM]
CCSc1nc(-c2ccc(Cl)cc2)cc(-c2ccc(OC)cc2)n1 [Compound 10, 4-(4-Chlorophenyl)-2-(ethylthio)-6-(4-methoxyphenyl)pyrimidine]	75 ± 7
CCCSc1nc(-c2ccc(Cl)cc2)cc(-c2ccc(OC)cc2)n1 [Compound 11, 4-(4-Chlorophenyl)-6-(4-methoxyphenyl)-2-(propylthio)pyrimidine]	52 ± 5

Test system: HT-29
Experiment: Antiproliferative assay (MTT)
Type: cell-based
Details: Homo sapiens, HT-29 (colon), read-out: Antiproliferative activity IC50 ± SEM, HT-29
From the text: as §3, §4, §5, §6, §7, §8

SMILES	IC50 [nM]
CCSc1nc(-c2ccc(Cl)cc2)cc(-c2ccc(OC)cc2)n1 [Compound 10, 4-(4-Chlorophenyl)-2-(ethylthio)-6-(4-methoxyphenyl)pyrimidine]	74 ± 7
CCCSc1nc(-c2ccc(Cl)cc2)cc(-c2ccc(OC)cc2)n1 [Compound 11, 4-(4-Chlorophenyl)-6-(4-methoxyphenyl)-2-(propylthio)pyrimidine]	53 ± 5

Test system: MCF-7
Experiment: Antiproliferative assay (MTT)
Type: cell-based
Details: Homo sapiens, MCF7, MCF-7 (breast), read-out: Antiproliferative activity IC50 ± SEM, MCF-7
From the text: as §3, §4, §5, §6, §7, §8

SMILES	IC50 [nM]
CCSc1nc(-c2ccc(Cl)cc2)cc(-c2ccc(OC)cc2)n1 [Compound 10, 4-(4-Chlorophenyl)-2-(ethylthio)-6-(4-methoxyphenyl)pyrimidine]	79 ± 7
CCCSc1nc(-c2ccc(Cl)cc2)cc(-c2ccc(OC)cc2)n1 [Compound 11, 4-(4-Chlorophenyl)-6-(4-methoxyphenyl)-2-(propylthio)pyrimidine]	55 ± 5

Test system: Panc-1
Experiment: Antiproliferative assay (MTT)
Type: cell-based
Details: Homo sapiens, Panc-1 (pancreatic), read-out: Antiproliferative activity IC50 ± SEM, Panc-1
From the text: as §3, §4, §5, §6, §7, §8

SMILES	IC50 [nM]
CCSc1nc(-c2ccc(Cl)cc2)cc(-c2ccc(OC)cc2)n1 [Compound 10, 4-(4-Chlorophenyl)-2-(ethylthio)-6-(4-methoxyphenyl)pyrimidine]	76 ± 7
CCCSc1nc(-c2ccc(Cl)cc2)cc(-c2ccc(OC)cc2)n1 [Compound 11, 4-(4-Chlorophenyl)-6-(4-methoxyphenyl)-2-(propylthio)pyrimidine]	54 ± 5

Test system: not given
Experiment: not given
Details: not given

SMILES	melting point [°C]
CCSc1nc(-c2ccc(Cl)cc2)cc(-c2ccc(OC)cc2)n1 [Compound 10, 4-(4-Chlorophenyl)-2-(ethylthio)-6-(4-methoxyphenyl)pyrimidine]	230 to 231
CCCSc1nc(-c2ccc(Cl)cc2)cc(-c2ccc(OC)cc2)n1 [Compound 11, 4-(4-Chlorophenyl)-6-(4-methoxyphenyl)-2-(propylthio)pyrimidine]	228 to 230
